Data: article PMC12866179, “Oxidized MIF is an Alzheimer’s disease drug target relaying external risk factors to tau pathology” (Cell Reports Medicine, 2025)
Read-outs that look alike come from different tables or passages of the source.

What was measured:
[1] = test system: HSV-1; assay: In-cell ELISA for antiviral (HSV-1) activity in Vero cells; assay type: cell-based, HSV-1 KOS strain; conditions: for IC50: Human alphaherpesvirus 1, Vero; for potency relative to PAV-802 in inhibiting HSV-1 replication: in vitro assay
Protocol: Antiviral activity of the compounds was measured by in-cell ELISA that was adapted from Fabiani et al.[90] […] In parallel cells were infected with serial dilutions of HSV-1 to generate a standard curve. […] Following blocking with 5% BSA in PBS/0.05% Tween 20 (Sigma, PBS-T) for 60 min the cells were incubated with 50 μL of anti-HSV-1-gC antibody (abcam) diluted 1 to 10,000 in PBS-T over night at 4°C. The following day, cells were washed four times with PBS-T and then incubated with Hrp-conjugated goat anti-mouse antibody (Thermo Fisher Scientific) at a dilution of 1:10,000 in PBS-T for 60 min. Then, cells were washed four times with PBS-T before adding 50 μL of the substrate cocktail (OptEIA, BD). The reaction was stopped after 30 min by adding 50 μL of 2N H2SO4 and signals were spectrometrically analyzed using a Tecan Safire at 450 nm.

[2] = MTT assay, Vero cells; assay type: cell-based; conditions: for CC50 at 24 h: African green monkey
Protocol: For viability analysis 4x10^4 Vero or 8x10^4 SH-SY5Y-tau-P301S cells were plated in a 96-well plate and incubated at 37°C overnight. Then the compounds diluted in DMSO were added to the cells. The final concentration of DMSO was 1%. The cells were then incubated for 24h (Vero) or 48h (SH-SY5Y). Afterward 20 μL of a Thiazolyl Blue Tetrazolium Bromide (MTT, Sigma) solution (5 mg/mL in PBS) was added to the cells and incubated for 4h allowing viable cells to reduce the yellow MTT into blue formazan metabolites. Following aspiration of the medium, the formazan was resuspended in 200 μL isopropanol/40 mM HCl and incubated for 30 min at RT. The diluted formazan was spectrometrically analyzed using a Tecan Safire Spectrometer at 560 nm and background at 670 nm was subtracted.

[3] = test system: tau phosphorylation; assay: Tau assay (immunoblot of phospho-tau) in SH-SY5Y-tau-P301S cells; assay type: cell-based, human; conditions: for tau phosphorylation at Ser202 and Thr205 (AT8): absence of virus, ISO-1 up to 100 μM; for effect on tau phosphorylation (AT8) in MIF-knockdown cells: SH-SY5Y-tau-P301S-MIF-knockdown cells; for potency relative to PAV-802 in inhibiting tau phosphorylation: in vitro assay
Protocol: For the analysis of compound effects on tau phosphorylation 4x10^5 SH-SY5Y tau-P301S cells were seeded on 24-well plates. At the next day the cells were treated with compounds diluted in DMSO. Final concentration of DMSO was 0.2%. After an incubation at 37°C for 48h the cells were washed twice with PBS and then lysed in PBS/1% NP40 (Applichem) including the cOmplete protease inhibitor cocktail 2 (Roche) and phosphatase inhibitor cocktail (Sigma). The protein concentration of the samples was determined with the DC Protein Assay (Bio-Rad).
After the protein concentration of cell lysates and homogenates had been determined using the DC Protein Assay Kit (Bio-Rad), 20 μg of each sample were dissolved in NuPAGE LDS Sample buffer (including 2% β-mercaptoethanol), boiled at 100°C for 5 min and then separated on NuPAGE Novex 4–12% Bis-Tris midi gels (Invitrogen) using NuPAGE MES SDS Running buffer (Invitrogen). Proteins were then transferred to a 0.2 μm nitrocellulose membrane (Amersham) in 24 mM Tris/192 mM glycine/20% MeOH at 400 mA for 2h using a tank blot system (Bio-Rad). In order to detect any blotting artifacts, the proteins on the membranes were visualized with Ponceau S (Sigma). The membranes were destained with PBS and then blocked with PBS/5% nonfat milk (Oxoid) for 1h at RT. Incubations with primary antibodies (diluted 1:1,000) in PBS-T were carried out overnight at 4°C. Then the membranes were washed three times with PBS-T for 10 min and afterward incubated with fluorescent secondary antibodies (IR Dye 680 or 800: Li-COR Biosciences.) diluted 1:20,000 in PBS-T for 1h at RT. Following three washing steps with PBS-T for 10 min each, the membranes were scanned using an LI-COR Odyssey CLX. Signal intensities were calculated using the Image Studio Version 2.1 software (LI-COR Biosciences). Blots were reused for staining with additional primary antibodies following the same procedure.

[4] = in vitro; assay type: in vitro ADME
[5] = target: T1, MIF (Homo sapiens, UniProt P14174); assay: Drug resin affinity chromatography (DRAC), MIF; assay type: binding; conditions: SH-SY5Y-tau-P301S lysates
T1 construct: endogenous in cells; host or cells: SH-SY5Y-tau-P301S cell lysate
T1 sequence (P14174 2-115): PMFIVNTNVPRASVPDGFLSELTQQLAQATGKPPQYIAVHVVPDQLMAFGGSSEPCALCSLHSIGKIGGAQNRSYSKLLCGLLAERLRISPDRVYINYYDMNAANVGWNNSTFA
Protocol: (§1) For drug resin affinity chromatography (DRAC), supernatant of cell lysates or brain extracts were supplemented with 1 mM of ribonucleoside triphosphates (ATP, GTP, CTP, UTP; NEB), 10 mM creatine phosphate (Sigma) and 10 μL/mL of a 5 mg/mL stock solution of creatine kinase (Sigma). The samples were then loaded onto 20 μL of compound-coupled resin that were equilibrated with PBB-buffer (plus supplements). After one hour of incubation at 26°C, the beads were washed with PBB (100x bed volume). Bound proteins were then eluted either with 200 μM PAV-645 (pig brain) or 100 μM free compound (human brain samples; cell lysates) in the same buffer used as competitor solution or for stripping 1% SDS or 8M urea (cell lysates) for 1h. All elutions were kept frozen until further analysis.

[6] = target: T2, CUTA (Homo sapiens, UniProt O60888); assay: Drug resin affinity chromatography (DRAC), CUTA; assay type: binding; conditions: SH-SY5Y-tau-P301S lysates
T2 construct: endogenous in cells; host or cells: SH-SY5Y-tau-P301S cell lysate
T2 sequence (O60888 33-179): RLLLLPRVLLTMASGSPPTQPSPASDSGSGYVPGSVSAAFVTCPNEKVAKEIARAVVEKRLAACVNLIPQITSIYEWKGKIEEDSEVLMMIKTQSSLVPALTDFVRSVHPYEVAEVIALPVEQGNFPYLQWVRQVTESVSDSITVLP
Protocol: as §1

[7] = test system: pox viruses; conditions: cited from earlier work

SMILES | IC50 [1] | IC50 ([1]; read-out: IC50, HSV-1 replication, in-cell ELISA) | potency relative to PAV-802 in inhibiting HSV-1 replication [1] | CC50 at 24 h ([2]; CC50 (µM)) | CC50 at 24 h ([2]; CC50, MTT assay in Vero) | CC50 ([2]; CC50 (µM)) | tau phosphorylation at Thr181 (AT270) ([3]; SH-SY5Y-tau-P301S cells) | tau phosphorylation at Thr231 (AT180) ([3]; SH-SY5Y-tau-P301S cells) | HSV-1-induced increase of tau phosphorylation (AT8) ([3]; SH-SY5Y-tau-P301S cells infected with HSV-1) | tau phosphorylation at Ser202 and Thr205 (AT8) ([3]; SH-SY5Y-tau-P301S cells) | effect on tau phosphorylation (AT8) in MIF-knockdown cells [3] | potency relative to PAV-802 in inhibiting tau phosphorylation [3] | fraction unbound [4] | elution of MIF from PAV-617 resins by free compound [5] | elution of CUTA from PAV-617 resins by free compound [6] | antiviral effects on pox viruses [7]
CCc1cc(N2CCCC2)cc2[s+]c3cc(N4CCCC4)cc(C)c3nc12.[I-] [PAV-174, 3,7-Di(pyrrolidine-1-yl) 1-ethyl-9-methyl-phenothiazin-5-ium iodide] | 20 nM | 21 nM | around 2 logs | 1.2 µM | 1.12 µM | 1.16 µM | only at higher concentrations | dose-dependent reduction | absent | reduced tau phosphorylation | absent | around 2 logs | 0.001 | eluted | eluted | antiviral effects
[I-].c1cc2nc3ccc(N4CCCC4)cc3[s+]c2cc1N1CCCC1 [PAV-617, 3,7-Di(pyrrolidine-1-yl)phenothiazine-5-ium iodide] | 220 nM |  | retained that enhanced activity |  |  | 20.1 µM |  |  |  | reduced tau phosphorylati on ly in control | bu t no t in MIF-knockdown | retained that enhanced activity | 0.088 | eluted | eluted | antiviral effects
